Test results published in patent US20250163057A1, “DCN-1 MODULATING COMPOUNDS AND METHODS OF USE THEREOF” (Cellarity, Inc., priority 2023, published 2025).
Read-outs that look alike come from different tables or passages of the source.

Biological target: DCN1 (DCUND1) protein PONY domain (Homo sapiens (Human), UniProt Q96GG9)
Assay: TR-FRET assay, DCN1 binding with FAM-labeled probe
Method: A TR-FRET assay was performed to evaluate the ability of the compounds to bind the DCN-1 protein.
The TR-FRET assay was designed following the Scott et al. protocol (Scott et al., Nat Chem Biol. 2017 August; 13(8): 850-857. Doi:10.1038/nchembio.2386). The recombinant form of the DCN1 (DCUND1) protein PONY domain was produced using an E. coli expression system at Viva Biotech (China). The DCN1 protein was biotinylated (EZ sulfo-NHS-LC-biotin; Thermofisher) for labeling with streptavidin terbium (Tb) cryptate in the reaction. The probe was changed to a non-covalent DCN1 inhibitor labeled with carboxyfluorescein (FAM; Zhou et al., Nat Commun. 2017; 8: 1150. Doi: 10.1038/s41467-017-01243-7). Buffer conditions were modified to enhance protein stability by exchanging Tween20 for TritonX and increasing NaCl to 200 mM. The compounds were screened against 5 nM DCN1 and 20 nM FAM-probe or 0.31 nM DCN1 and 900 nM total probe (100 nM FAM-labeled plus 800 nM unlabeled). The TR-FRET ratio between Tb-DCN1 and the FAM-labeled probe was measured in a 384-well opti-plate (Perkin Elmer) using a plate reader (BMG) at 1, 5, and 24 hrs after treatment with compound (final DMSO concentration of 0.1%).

[1] = 24 hr after treatment with compound, read-out: TR FRET IC50 24 hr
[2] = TR FRET IC50 1 hr (nM), 1 hr after treatment with compound

Chain of DCN1 (DCUND1) protein PONY domain (Q96GG9 60-248): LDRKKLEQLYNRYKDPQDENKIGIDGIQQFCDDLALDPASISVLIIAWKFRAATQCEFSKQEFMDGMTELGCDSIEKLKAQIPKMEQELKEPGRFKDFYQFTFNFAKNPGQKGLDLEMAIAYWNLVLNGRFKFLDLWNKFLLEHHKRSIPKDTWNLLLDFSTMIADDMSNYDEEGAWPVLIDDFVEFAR

Compound | IC50 [1] [nM] | IC50 [2] [nM]
CCN1C(=O)[C@@H](NC(=O)c2cccc(C(F)(F)F)c2)[C@@H](c2ccc(F)cc2)c2c(CN(C#N)CCF)nn(-c3ccccc3)c21 (racemic) [Compound I-61] | 200 to 1000 | 200 to 1000
CCN1C(=O)[C@@H](NC(=O)c2cccc(C(F)(F)F)c2)[C@@H](c2ccc(F)cc2)c2c(NC(=O)C(C)(C)C#N)nn(-c3ccccc3)c21 (racemic) [Compound I-63] | 200 to 1000 | 
CCN1C(=O)[C@@H](NC(=O)c2cccc(C(F)(F)F)c2)[C@@H](c2ccc(F)cc2)c2c(CNC(=O)/C=C/C(N)=O)nn(-c3ccccc3)c21 (racemic) [Compound I-64, rac-N1-(((4R,5R)-7-ethyl-4-(4-fluorophenyl)-6-oxo-1-phenyl-5-(3-(trifluoromethyl)benzamido)-4,5,6,7-tetrahydro-1H-pyrazolo[3,4-b]pyridine-3-yl)methyl)fumaramide] | 200 to 1000 | 1000 to 3000
CCN1C(=O)[C@@H](NC(=O)c2cccc(C(F)(F)F)c2)[C@@H](c2ccc(F)cc2)c2c(CNC(=O)C#CCN3CCOCC3)nn(-c3ccccc3)c21 (racemic) [Compound I-68, ˜{N}—[˜{rac}-(4˜{S},5˜{S})-7-ethyl-4-(4-fluorophenyl)-3-[(4-morpholinobut-2-ynoylamino)methyl]-6-oxo-1-phenyl-4,5-dihydropyrazolo[3,4-b]pyridine-5-yl]-3-(trifluoromethyl)benzamide] | 200 to 1000 | 200 to 1000
CCN1C(=O)[C@@H](NC(=O)c2cccc(C(F)(F)F)c2)[C@@H](c2ccc(F)cc2)c2c(CC/C=C\C(=O)N(C)C)nn(-c3ccccc3)c21 (racemic) [Compound I-69] | 200 to 1000 | 200 to 1000
CCN1C(=O)[C@@H](NC(=O)c2cccc(C(F)(F)F)c2)[C@@H](c2ccc(F)cc2)c2c(/C=C3/CCC(=O)N3)nn(-c3ccccc3)c21 (racemic) [Compound I-70, rac-N-((4R,5R)-7-ethyl-4-(4-fluorophenyl)-6-oxo-3-((Z)-(5-oxopyrrolidin-2-ylidene)methyl)-1-phenyl-4,5,6,7-tetrahydro-1H-pyrazolo[3,4-b]pyridin-5-yl)-3-(trifluoromethyl)benzamide] | 1000 to 3000 | 1000 to 3000
CCN1C(=O)[C@@H](NC(=O)c2cccc(C(F)(F)F)c2)[C@H](c2ccc(F)cc2)c2c(CNC(=O)C3=C(C(=O)OC)CCC3)nn(-c3ccccc3)c21 (racemic) [Compound I-71] | 200 to 1000 | 200 to 1000
C=C(Cc1nn(-c2ccccc2)c2c1[C@H](c1ccc(F)cc1)[C@H](NC(=O)c1cccc(C(F)(F)F)c1)C(=O)N2CC)C(=O)OC(C)(C)C (racemic) [Compound I-78, rac-tert-butyl 2-(((4R,5R)-7-ethyl-4-(4-fluorophenyl)-6-oxo-1-phenyl-5-(3-(trifluoromethyl)benzamido)-4,5,6,7-tetrahydro-1H-pyrazolo[3,4-b]pyridin-3-yl)methyl)acrylate] | 1000 to 3000 | 1000 to 3000
CCN1C(=O)[C@@H](NC(=O)c2cccc(C(F)(F)F)c2)[C@@H](c2ccc(F)cc2)c2c(C(=O)NCCC#N)nn(-c3ccccc3)c21 (racemic) [Compound I-81, rac-(4R,5R)—N-(2-cyanoethyl)-7-ethyl-4-(4-fluorophenyl)-6-oxo-1-phenyl-5-(3-(trifluoromethyl)benzamido)-4,5,6,7-tetrahydro-1H-pyrazolo[3,4-b]pyridine-3-carboxamide] | 1000 to 3000 | 1000 to 3000
CCN1C(=O)[C@H](NC(=O)c2cccc(C(F)(F)F)c2)[C@H](c2ccc(F)cc2)c2c(CNC(=O)C3=CCN(C)C3)nn(-c3ccccc3)c21 (racemic) [Compound I-86, rac-N-(((4R,5R)-7-ethyl-4-(4-fluorophenyl)-6-oxo-1-phenyl-5-(3-(trifluoromethyl)benzamido)-4,5,6,7-tetrahydro-1H-pyrazolo[3,4-b]pyridin-3-yl)methyl)-1-methyl-2,5-dihydro-1H-pyrrole-3-carboxamide] | 200 to 1000 | 200 to 1000
